# Results as given in patent US11390900B2, “Antimicrobial cartridges and processes for multiplexed antimicrobial susceptibility testing” (priority 2018, dated 2022).
# Like-named read-outs stand apart in the source and are kept apart here.
# How the values were obtained:
# E. faecalis 29212 = conditions: MIC range, E. faecalis 29212, Gram positive panel; cited from earlier work
# [1] = tested on: clinical isolate of S. aureus; experiment: Broth microdilution reference method MIC; assay type: cell-based; conditions: Staphylococcus aureus; clinical isolate of S. aureus; read-out: MICs obtained from the broth microdilution reference method
# Description: The antibiotics shown are vancomycin, daptomycin, ceftaroline and levofloxacin, of which the MICs obtained from the broth microdilution reference method for this strain were 0.5, 0.25, 0.12, and 0.25 μg/ml, respectively. A clinical isolate of S. aureus was used. Data represents the TRF signal in RFUs. Graphs in the top row contain data from 384-well plates. Graphs in the bottom row contain data from 96-well plates.
# K. pneumoniae 700603 = conditions: MIC range, K. pneumoniae 700603, Gram negative panel; cited from earlier work
# E. coli 25922 = conditions: MIC range, E. coli 25922, Gram negative panel; cited from earlier work
# S. aureus 29213 = conditions: MIC range, cited from earlier work
# patient sample microbes [2] = experiment: AST MIC results for antimicrobial panel 2 (384-well panel from Master Plate vs 96-well panel); assay type: cell-based; conditions: for MICs obtained from panel made from Master Plate: antimicrobial panel 2, 384 well patient cartridge; for MICs obtained from 96-well Antibiotic Panel: antimicrobial panel 2, standard 96 well AST assay plate
# Text: (§1) An assay setup comprises preparation of patient (target) cartridge by dispensing antimicrobials were from the master cartridge or intermediate serial dilution cartridges into one or more 384 reservoir patient cartridge, each antimicrobial in about 7 serial dilutions in triplicate, and covering the dynamic range of each antimicrobial that is known to be effective and therefore should be reported. The dilution range included the expected minimum inhibitory concentration (MIC) for each antimicrobial. But most importantly, dilution ranges, that is, antimicrobial concentrations beyond the range known to be effective are included in the patient cartridge as per the present invention.
# (§2) The remaining reservoirs of the 384 well patient cartridge are utilized for setting up test controls: a no-antimicrobial control (negative control) was included for each antimicrobial compound; and a positive control was included for each antimicrobial set, where a microorganism that is not susceptible to the antimicrobial was added to the well. Each control set was also dispensed at least in duplicate per 384 well cartridge. Additional test controls may be included as deemed necessary by one of skill in the art. Equal amount of a patient sample was dispensed to each of the wells in the cartridge, except in the wells designated for no-sample control, if included. The patient cartridge was ready for determination of susceptibility of microbes from the patient sample to the twelve antimicrobials at the range of concentrations applied, simultaneously. Multiple such plates can be set up in parallel for testing samples from multiple patients, each patient sample per plate. An AST assay was performed on the prepared patient cartridges.
# (§3) First, three master plates are loaded by the user onto chilled plate holders (set to 4° C.). These consist of one Broad Spectrum, one Gram-Positive and one Gram-Negative antibiotic plate. Next the bulk reagents and pipette tips are loaded on tube rack. Master and bulk reagent pipette tips and sample dilution tray are reloaded every 12 samples. For every set of tests, up to four Patient Samples in tubes and up to four 384-well Target Plates (Patient plate) are loaded.
# (§4) Antibiotics are transferred from Broad Spectrum Master Plate to Target Plate(s). Antibiotics are “stamped” according to FIG. 10A-B. The inoculator tips should be placed back in the same position of the Broad Spectrum Tip Box for use on subsequent target plates, but should only be used for same antibiotics to avoid cross contamination.
# (§5) Antimicrobials are transferred from Gram-Positive OR Gram-Negative Master Plate to Target Plate(s) and the antibiotics are “stamped” according to FIG. 11A-B. The inoculator should place tips back in the same position of the correct tip box for use on subsequent target plates. Good care is taken such that any cross contamination is prevented.
# (§6) Using new tips from the Sample Tip Box, 50 μL of diluted patient sample are transferred into Target Plate according to Table Four, this is done with a “jet dispense” to avoid cross contamination. After the Patient Sample has been transferred to each well on the Target Plate, the tips should be disposed of to avoid cross contamination. The above steps are repeated for each additional Patient Sample and Target Plate.
# (§7) Shown in Table 6 and Table 7, MIC results for antimicrobial panels 1 and 2 respectively using a master cartridge format and a 384 well patient cartridge (column 3) agrees reliably with that run by standard 96 well AST assay plate (right hand column).
# patient sample microbes [3] = conditions: antimicrobial panel 2, MIC range; cited from earlier work
# patient sample microbes [4] = conditions: antimicrobial panel 1, MIC range; cited from earlier work
# patient sample microbes [5] = experiment: AST MIC results for antimicrobial panel 1 (384-well panel from Master Plate vs 96-well panel); assay type: cell-based; conditions: for MICs obtained from panel made from Master Plate: antimicrobial panel 1, 384 well patient cartridge; for MICs obtained from 96-well Antibiotic Panel: antimicrobial panel 1, standard 96 well AST assay plate
# Text: as §1, §2, §3, §4, §5, §6, §7
# [6] = S. aureus 29213, Gram positive panel
# [7] = S. aureus 29213, Gram negative panel
compound,measurement,setting,value
CCCCCCCCCC(=O)N[C@@H](Cc1c[nH]c2ccccc12)C(=O)N[C@H](CC(N)=O)C(=O)N[C@@H](CC(=O)O)C(=O)N[C@@H]1C(=O)NCC(=O)N[C@@H](CCCN)C(=O)N[C@@H](CC(=O)O)C(=O)N[C@H](C)C(=O)N[C@@H](CC(=O)O)C(=O)NCC(=O)N[C@H](CO)C(=O)N[C@@H]([C@H](C)CC(=O)O)C(=O)N[C@@H](CC(=O)c2ccccc2N)C(=O)O[C@@H]1C [Daptomycin],CLSI-Defined QC Range,E. faecalis 29212,1 to 4 µg/mL
same,MIC,[1],0.25 µg/mL
Nc1nc(-n2cc(C(=O)O)c(=O)c3cc(F)c(N4CC(O)C4)c(Cl)c32)c(F)cc1F [Delafloxacin],CLSI-Defined QC Range,E. faecalis 29212,0.016 to 0.12 µg/mL
C[C@H]1[C@H](NC(=O)/C(=N\OC(C)(C)C(=O)O)c2csc(N)n2)C(=O)N1S(=O)(=O)O [Aztreonam],CLSI-Defined QC Range,K. pneumoniae 700603,8 to 64 µg/mL
same,CLSI-Defined QC Range,E. coli 25922,0.06 to 0.25 µg/mL
Cc1nnc(SCC2=C(C(=O)O)N3C(=O)[C@@H](NC(=O)Cn4cnnn4)[C@H]3SC2)s1 [Cefazolin],CLSI-Defined QC Range,E. coli 25922,1 to 4 µg/mL
CC[C@H]1OC(=O)[C@H](C)[C@@H](O[C@H]2C[C@@](C)(OC)[C@@H](O)[C@H](C)O2)[C@H](C)[C@@H](O[C@@H]2O[C@H](C)C[C@H](N(C)C)[C@H]2O)[C@](C)(O)C[C@@H](C)CN(C)[C@H](C)[C@@H](O)[C@]1(C)O [Azithromycin],CLSI-Defined QC Range,S. aureus 29213; [6],0.5 to 2 µg/mL
Cn1nnc(-c2ccc(-c3ccc(N4C[C@H](CO)OC4=O)cc3F)cn2)n1 [Tedizolid],MICs obtained from panel made from Master Plate,patient sample microbes [2],0.25 µg/mL
same,MICs obtained from 96-well Antibiotic Panel,patient sample microbes [2],0.5 µg/mL
same,Quality Control Range,patient sample microbes [3],0.25-1
C[C@@H](O)[C@H]1C(=O)N2C(C(=O)O)=C(S[C@@H]3CN[C@H](C(=O)Nc4cccc(C(=O)O)c4)C3)[C@H](C)[C@H]12 [Ertapenem],CLSI-Defined QC Range,S. aureus 29213; [7],0.06 to 0.25 µg/mL
COc1cc(Cc2cnc(N)nc2N)cc(OC)c1OC [Trimethoprim],CLSI-Defined QC Range,S. aureus 29213; [6],1 to 4 µg/mL
CO/N=C(\C(=O)N[C@@H]1C(=O)N2C(C(=O)[O-])=C(C[N+]3(C)CCCC3)CS[C@H]12)c1csc(N)n1 [Cefepime],Quality Control Range,patient sample microbes [4],0.015-0.12
same,CLSI-Defined QC Range,S. aureus 29213; [7],1 to 4 µg/mL
same,MICs obtained from panel made from Master Plate,patient sample microbes [5],≤ 0.25 µg/mL
same,MICs obtained from 96-well Antibiotic Panel,patient sample microbes [5],≤ 0.03 µg/mL
CC(=O)NC[C@H]1CN(c2ccc(N3CCOCC3)c(F)c2)C(=O)O1 [Linezolid],CLSI-Defined QC Range,S. aureus 29213; [6],1 to 4 µg/mL
same,MICs obtained from panel made from Master Plate,patient sample microbes [2],2 µg/mL
same,MICs obtained from 96-well Antibiotic Panel,patient sample microbes [2],2 µg/mL
same,Quality Control Range,patient sample microbes [3],1-4
CCO/N=C(\C(=O)N[C@@H]1C(=O)N2C(C(=O)[O-])=C(Sc3nc(-c4cc[n+](C)cc4)cs3)CS[C@H]12)c1nsc(N)n1 [Ceftaroline],MICs obtained from panel made from Master Plate,patient sample microbes [2],0.5 µg/mL
same,MICs obtained from 96-well Antibiotic Panel,patient sample microbes [2],0.25 µg/mL
same,MIC,[1],0.12 µg/mL
NCC[C@H](O)C(=O)N[C@@H]1C[C@H](N)[C@@H](O[C@H]2O[C@H](CN)[C@@H](O)[C@H](O)[C@H]2O)[C@H](O)[C@H]1O[C@H]1O[C@H](CO)[C@@H](O)[C@H](N)[C@H]1O [Amikacin],Quality Control Range,patient sample microbes [4],0.5-4
same,CLSI-Defined QC Range,S. aureus 29213; [7],1 to 4 µg/mL
same,MICs obtained from panel made from Master Plate,patient sample microbes [5],4 µg/mL
same,MICs obtained from 96-well Antibiotic Panel,patient sample microbes [5],4 µg/mL
